Reference: US10323001B2, “Compositions for modulating a kinase cascade and methods of use thereof” (Athenex, Inc., priority 2006, dated 2019)

Experiments:
Src protein substrates [1] = assay: Src substrate phosphorylation in c-Src transformed NIH3T3 cells; assay type: cell-based; details: c-Src (527F, constitutively active and transforming) transformed NIH3T3 cells
Excerpt: (§1) Compounds of the invention or salts thereof may be Src signaling inhibitors that bind in the Src peptide substrate site. The activity of various compounds of the invention and salts has been studied in c-Src ([…], constitutively active and transforming) transformed NIH3T3 cells and in human colon cancer cells (HT29).

Src protein substrates [2] = assay: Src substrate phosphorylation in human colon cancer cells (HT29); assay type: cell-based
Excerpt: as §1

[3] = Moisture-sorption analysis (Hiden IGAsorp); assay type: physicochemical; details: 90% RH, 25° C.; listed as Free base
Protocol: Moisture-sorption experiments were performed using a Hiden IGAsorp Moisture Sorption instrument on KX2-391.MSA obtained in accordance with the process of the present invention (Example 4). First, the sample was dried at 0% Relative Humidity (RH) and 25° C. until an equilibrium weight was reached or for a maximum of four hours. The sample was then subjected to an isothermal (25° C.) adsorption scan from 10 to 90% RH in steps of 10%. The sample was allowed to equilibrate to an asymptotic weight at each point for a maximum of four hours. Following adsorption, a desorption scan from 85 to 0% RH (at 25° C.) was run in steps of −10% again allowing a maximum of four hours for equilibration to an asymptotic weight. The sample was then dried for one hour at 80° C. and the resulting solid analyzed by XRPD. […] FIG. 10 depicts percent change of water content as a function of relative humidity for KX2-391.MSA, Form A.
Moisture-sorption experiments were performed using a Hiden IGAsorp Moisture Sorption Instrument on KX2-391.2HCl obtained in accordance with the process of the present invention (Example 3). First, the sample was dried at 0% Relative Humidity (RH) and 25° C. until an equilibrium weight was reached or for a maximum of four hours. The sample was then subjected to an isothermal (25° C.) adsorption scan from 10 to 90% RH in steps of 10%. The sample was allowed to equilibrate to an asymptotic weight at each point for a maximum of four hours. Following adsorption, a desorption scan from 85 to 0% RH (at 25° C.) was run in steps of −10% again allowing a maximum of four hours for equilibration to an asymptotic weight. The sample was then dried for one hour at 80° C. and the resulting solid analyzed by XRPD.

For `O=C(Cc1ccc(-c2ccc(OCCN3CCOCC3)cc2)cn1)NCc1ccccc1` [KX2-391, 2-(5-(4-(2-morpholinoethoxy)phenyl)pyridin-2-yl)-N-benzylacetamide], which “phosphorylation level of known Src protein substrates” value (Src protein substrates [1]) is on record?
The value was “reduce the phosphorylation level of known Src protein substrates in a dose-dependent fashion”.

What about the “phosphorylation level of known Src protein substrates” value (Src protein substrates [2]) of the same compound?
The value was “reduce the phosphorylation level of known Src protein substrates in a dose-dependent fashion”.

What about the “Moisture Sorption Wt % Water @ 90% RH” value [3] of the same compound?
The value was 3.7 wt %.
